Measurements reported in ChEMBL document CHEMBL1201862, “PubChem BioAssay data set” (2004).
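Growth conditions: 96-well plates. Treatment: test compound, 48 hours, 5 concentrations. Analysis: linear interpolation between bracketing concentrations; unreached endpoints set to highest concentration. GI50: concentration for 50% inhibition of growth.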 The source made the active and inactive calls. Cut-off read from the data, not from the text of the source: active = GI50 up to about 1.1 µM and inactive = higher.

Columns and labels:
Experiment in all cases: NCI-60 cell line screen, 48 h
[1] = system: 786-0
[2] = system: A549
[3] = system: ACHN
[4] = system: CAKI-1
[5] = system: CCRF-CEM
[6] = system: COLO 205
[7] = system: DLD-1
[8] = system: DMS-114
[9] = system: DMS-273
[10] = system: EKVX
[11] = system: HCC 2998
[12] = system: HCT-116
[13] = system: HL-60
[14] = system: HOP-18
[15] = system: HOP-62
[16] = system: HOP-92
[17] = system: HT-29
[18] = system: IGROV-1
[19] = system: K562
[20] = system: KM-20L2
[21] = system: KM12
[22] = system: LOX IMVI
[23] = system: LXFL 529
[24] = system: M14
[25] = system: M19-MEL
[26] = system: MOLT-4
[27] = system: NCI-H226
[28] = system: NCI-H23
[29] = system: NCI-H460
[30] = system: NCI-H522
[31] = system: OVCAR-3
[32] = system: OVCAR-4
[33] = system: OVCAR-5
[34] = system: OVCAR-8
[35] = system: RPMI-8226
[36] = system: RXF 393
[37] = system: RXF 631
[38] = system: SF-268
[39] = system: SF-295
[40] = system: SF-539
[41] = system: SK-MEL-28
[42] = system: SK-MEL-2
[43] = system: SK-MEL-5
[44] = system: SK-OV-3
[45] = system: SN12C
[46] = system: SNB-19
[47] = system: SNB-75
[48] = system: SNB-78
[49] = system: SR
[50] = system: SW-620
[51] = system: TK-10
[52] = system: U-251
[53] = system: UACC-257
[54] = system: UACC-62
[55] = system: UO-31
[56] = system: XF498
[57] = system: A498
[58] = system: HCT-15
[59] = system: Malme-3M

S=C1OC2CCCC[C@H]2O1 (stereo partly specified)
GI50 [1]: > 100 µM (inactive)
GI50 [2]: > 100 µM (inactive)
GI50 [3]: > 100 µM (inactive)
GI50 [4]: > 100 µM (inactive)
GI50 [5]: > 100 µM (inactive)
GI50 [6]: > 100 µM (inactive)
GI50 [7]: > 100 µM (inactive)
GI50 [8]: > 100 µM (inactive)
GI50 [9]: > 100 µM (inactive)
GI50 [10]: > 100 µM (inactive)
GI50 [11]: > 100 µM (inactive)
GI50 [12]: > 100 µM (inactive)
GI50 [13]: > 100 µM (inactive)
GI50 [14]: > 100 µM (inactive)
GI50 [15]: > 100 µM (inactive)
GI50 [16]: > 100 µM (inactive)
GI50 [17]: > 100 µM (inactive)
GI50 [18]: > 100 µM (inactive)
GI50 [19]: > 100 µM (inactive)
GI50 [20]: > 100 µM (inactive)
GI50 [21]: > 100 µM (inactive)
GI50 [22]: > 100 µM (inactive)
GI50 [23]: > 100 µM (inactive)
GI50 [24]: > 100 µM (inactive)
GI50 [25]: > 100 µM (inactive)
GI50 [26]: > 100 µM (inactive)
GI50 [27]: > 100 µM (inactive)
GI50 [28]: > 100 µM (inactive)
GI50 [29]: > 100 µM (inactive)
GI50 [30]: > 100 µM (inactive)
GI50 [31]: > 100 µM (inactive)
GI50 [32]: > 100 µM (inactive)
GI50 [33]: > 100 µM (inactive)
GI50 [34]: > 100 µM (inactive)
GI50 [35]: > 100 µM (inactive)
GI50 [36]: > 100 µM (inactive)
GI50 [37]: > 100 µM (inactive)
GI50 [38]: > 100 µM (inactive)
GI50 [39]: > 100 µM (inactive)
GI50 [40]: > 100 µM (inactive)
GI50 [41]: > 100 µM (inactive)
GI50 [42]: > 100 µM (inactive)
GI50 [43]: > 100 µM (inactive)
GI50 [44]: > 100 µM (inactive)
GI50 [45]: > 100 µM (inactive)
GI50 [46]: > 100 µM (inactive)
GI50 [47]: > 100 µM (inactive)
GI50 [48]: > 100 µM (inactive)
GI50 [49]: > 100 µM (inactive)
GI50 [50]: > 100 µM (inactive)
GI50 [51]: > 100 µM (inactive)
GI50 [52]: > 100 µM (inactive)
GI50 [53]: > 100 µM (inactive)
GI50 [54]: > 100 µM (inactive)
GI50 [55]: > 100 µM (inactive)
GI50 [56]: > 100 µM (inactive)

CCN(CC)CC(C)(C)C(=O)/C=C/c1cccc(/C=C/C(=O)C(C)(C)CN(CC)CC)c1
GI50 [1]: 0.579 µM (active)
GI50 [57]: 1.36 µM (inactive)
GI50 [2]: 1.33 µM (inactive)
GI50 [3]: 1.15 µM (inactive)
GI50 [4]: 0.286 µM (active)
GI50 [5]: 0.337 µM (active)
GI50 [6]: 0.247 µM (active)
GI50 [7]: 0.237 µM (active)
GI50 [8]: 0.307 µM (active)
GI50 [9]: 0.476 µM (active)
GI50 [10]: 1.16 µM (inactive)
GI50 [11]: 1.22 µM (inactive)
GI50 [12]: 0.361 µM (active)
GI50 [58]: 0.461 µM
GI50 [14]: 1.51 µM (inactive)
GI50 [15]: 2.31 µM (inactive)
GI50 [16]: 0.504 µM (active)
GI50 [17]: 0.366 µM (active)
GI50 [18]: 1.02 µM (active)
GI50 [19]: 0.431 µM (active)
GI50 [20]: 1.07 µM (active)
GI50 [21]: 0.471 µM (active)
GI50 [22]: 0.184 µM (active)
GI50 [23]: 0.331 µM (active)
GI50 [24]: 1.48 µM (inactive)
GI50 [25]: 0.959 µM (active)
GI50 [26]: 0.27 µM (active)
GI50 [59]: 1.59 µM (inactive)
GI50 [27]: 1.76 µM (inactive)
GI50 [28]: 1.3 µM (inactive)
GI50 [29]: 0.692 µM (active)
GI50 [31]: 1.11 µM (active)
GI50 [32]: 0.442 µM (active)
GI50 [33]: 1.63 µM (inactive)
GI50 [34]: 0.333 µM (active)
GI50 [35]: 2.06 µM (inactive)
GI50 [36]: 0.433 µM (active)
GI50 [37]: 1.09 µM (active)
GI50 [38]: 0.429 µM (active)
GI50 [39]: 1.74 µM (inactive)
GI50 [40]: 1.05 µM (active)
GI50 [41]: 1.42 µM (inactive)
GI50 [43]: 1.59 µM (inactive)
GI50 [44]: 1.45 µM (inactive)
GI50 [45]: 0.303 µM (active)
GI50 [46]: 1.79 µM (inactive)
GI50 [47]: 0.176 µM (active)
GI50 [48]: 2.21 µM (inactive)
GI50 [49]: 0.305 µM (active)
GI50 [50]: 0.187 µM (active)
GI50 [51]: 1.14 µM (inactive)
GI50 [52]: 0.219 µM (active)
GI50 [53]: 1.22 µM (inactive)
GI50 [54]: 1.74 µM (inactive)
GI50 [55]: 1.75 µM (inactive)
GI50 [56]: 0.409 µM (active)

O=c1c(O)c(-c2ccc(O)c(O)c2)oc2cc(O)cc(O)c12 [QUERCETIN]
GI50 [1]: 59.8 µM (inactive)
GI50 [57]: > 100 µM (inactive)
GI50 [2]: > 100 µM (inactive)
GI50 [3]: > 100 µM (inactive)
GI50 [4]: > 100 µM (inactive)
GI50 [5]: 30.8 µM (inactive)
GI50 [6]: 33.6 µM (inactive)
GI50 [7]: 37.2 µM (inactive)
GI50 [8]: 36.5 µM (inactive)
GI50 [9]: 49.7 µM (inactive)
GI50 [10]: 41.2 µM (inactive)
GI50 [11]: > 100 µM (inactive)
GI50 [12]: 46.1 µM (inactive)
GI50 [58]: 36.8 µM
GI50 [13]: 21 µM (inactive)
GI50 [14]: > 100 µM (inactive)
GI50 [15]: 46.1 µM (inactive)
GI50 [18]: 59.3 µM (inactive)
GI50 [19]: 67.8 µM (inactive)
GI50 [20]: 83.6 µM (inactive)
GI50 [21]: 42.9 µM (inactive)
GI50 [22]: 18.9 µM (inactive)
GI50 [23]: > 100 µM (inactive)
GI50 [24]: > 100 µM (inactive)
GI50 [25]: 77.8 µM (inactive)
GI50 [26]: 76.9 µM (inactive)
GI50 [59]: > 100 µM (inactive)
GI50 [29]: 36.6 µM (inactive)
GI50 [30]: 84.3 µM (inactive)
GI50 [31]: > 100 µM (inactive)
GI50 [32]: > 100 µM (inactive)
GI50 [33]: > 100 µM (inactive)
GI50 [34]: 72.6 µM (inactive)
GI50 [36]: 55.7 µM (inactive)
GI50 [37]: 38.1 µM (inactive)
GI50 [38]: 46.7 µM (inactive)
GI50 [39]: 50.7 µM (inactive)
GI50 [40]: 47.5 µM (inactive)
GI50 [41]: 94.6 µM (inactive)
GI50 [42]: 88.5 µM (inactive)
GI50 [43]: 92 µM (inactive)
GI50 [44]: 52.7 µM (inactive)
GI50 [45]: > 100 µM (inactive)
GI50 [46]: 61.2 µM (inactive)
GI50 [47]: 49 µM (inactive)
GI50 [48]: > 100 µM (inactive)
GI50 [49]: 35.5 µM (inactive)
GI50 [50]: 20.3 µM (inactive)
GI50 [51]: > 100 µM (inactive)
GI50 [52]: 49.7 µM (inactive)
GI50 [53]: > 100 µM (inactive)
GI50 [54]: 31.2 µM (inactive)
GI50 [55]: 77.1 µM (inactive)
GI50 [56]: 72.8 µM (inactive)
